The text below walks through data of patent US10046050B2, “Targeting immunotherapy for amyloidosis” (UNIVERSITY OF TENNESSEE RESEARCH FOUNDATION, priority 2014, dated 2018).

Assay [1] has as its target T1, AA amyloid (Mus musculus, UniProt P05367).
T1 construct: from tissue; host or cells: organs of living H2-L^d-huIL-6 Tg Balb/c mice after AEF injection
T1 sequence (P05367 20-94 limits assumed): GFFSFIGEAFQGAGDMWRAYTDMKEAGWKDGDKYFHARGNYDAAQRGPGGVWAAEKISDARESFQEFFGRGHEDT
Description: In vivo binding of ^125I-p66 in AA mice (microautoradiography, SPECT/CT, biodistribution). On the procedure: Systemic visceral AA amyloidosis was induced in H2-L^d-huIL-6 Tg Balb/c transgenic mice that constitutively express the human interleukin-6 transgene, by iv injection of 10 μg of purified, splenic AA amyloid (amyloid enhancing factor; AEF) in 100 μL of sterile phosphate-buffered saline (PBS). Peptide p66 was evaluated in mice at 4-6 wk post AEF injection when amyloid load was significant.
Imaging was performed using WT or AA amyloid mice (n=3) that were injected with ˜5 μg of ^125I-p66, 125 μCi in the lateral tail vein. After the appropriate uptake time (data for 4 and 72 h pi shown), mice were euthanized by isoflurane inhalation overdose. SPECT images were acquired using an Inveon trimodality imaging platform (Siemens Preclinical Solution, Knoxville, Tenn.) running Inveon Acquisition Workplace software (ver. 2.0). Low energy (^125I; 25-45 keV) gamma photons were acquired at each of 60, 16-sec projections with 90 mm of bed travel. […]
Samples of liver, spleen, pancreas, kidneys, small and large intestines, stomach and heart were harvested post mortem from every mouse undergoing imaging with ^125I-p66. A sample of each was placed into a tared, plastic vial, weighed and the ^125I radioactivity measured using an automated Wizard 3 gamma counter (1480 Wallac Gamma Counter, Perkin Elmer). The biodistribution data were expressed as % injected dose/g tissue (% ID/g). […]

Assay [2] has as its system synthetic and naturally-occurring amyloid samples. Description: Pull down assay of ^125I-labeled peptides. Type of assay: binding. On the procedure: To evaluate the binding of p66 and p5+14 to synthetic and naturally-occurring amyloid, peptides p66 or p5+14 were radiolabeled with iodine-125 (I-125, ^125I) using oxidation with chloramine T (1 mg/ml in water freshly made. Free 1-125 was removed from the reaction mixture by size exclusion chromatography using a Sephadex G-25 solid phase and a 0.1% (w/v) gelatin in PBS mobile phase. Fractions of ˜250 μl were collected and the radioactivity in each measured using a gamma counter (Packard Cobra II auto-gamma counter). Peptide fractions with peak radioactivity were pooled and used for the “pull-down” assays.
For the pull down assay, ^125I-labeled peptide binding to murine: (m) AA and wild type (WT) liver homogenates (25 μl); rVλ6Wil (AL), Aβ(1-40) and islet amyloid polypeptide (IAPP) synthetic fibrils (25 μg), and; transthyretin-associated (ATTR), ALκ4-Cab and ALλ1-Ship human amyloid extracts (50 μg). The ^125I-peptides were prepared in PBST (0.15 M NaCl) or PBST with 1 M NaCl. Ten μl (˜5 ng, ˜100,000 counts per min [cpm]) of the ^125I-peptide solution was added to each test sample in a 200 μl volume. The reaction mixtures were rotated for 1 h at RT, then centrifuged twice at 16,000×g for 10 min. After each step the supernatants were removed and collected in test tubes. The pellets, obtained following the second spin were resuspended in PBST. The radioactivity in both the supernatant and pellet samples were measured using a Packard Cobra II auto-gamma counter. The bound peptide, expressed as % total was calculated according to: Bound peptide (% total)=(Pellet cpm)/(Pellet cpm+Supernatant cpm)

For the substance “KAQKAQAKQAKQAQKAQKAQAKQAKQAQKAQKAQAKQAKQ SVTVVT KHYAAFPENLLI [p66]”, in assay [1] (AA mice, ^125I-p66), the “time post injection at which amyloid in the liver could be readily visualized by SPECT imaging” value is on record as “at least 72 h”. Moreover, the “binding of radiolabeled peptide to amyloid deposits in vivo” value in assay [1] (mice with systemic AA amyloidosis, iv, autoradiography vs Congo red) was “specifically bound the amyloid deposits”. For the same substance, the “binding of ^125I-peptide to amyloid samples” value in assay [2] (0.15 M NaCl) and in assay [2] (1.0 M NaCl) was “bound equally well” in each case.
